Experiments:
[1] = Biodistribution study in LNCaP tumor-bearing mice (Th227 counted in organs); type: in vivo, SCID mice; details: 1500 kBq/kg
Method: (§1) SCID mice were randomly assigned to experimental groups, ten animals per group (efficacy) or n=3-5 per time point of biodistribution study. At the initiation of the study, a testosterone pellet was subcutaneously transplanted, the animals were shaved, tattooed and each cage was labeled with the cage number, study number and number of animals per cage.
(§2) LNCaP human prostate cancer cells were cultured as described according to the supplier's protocols. Cells were harvested for transplantation in a subconfluent (70%) state. Animals were injected with 5×10^6 LNCaP cells suspended in 100% Matrigel subcutaneously into the flank of the mice.
Biodistribution study: When tumors reached a predetermined size in mice of ˜50 mm^2 animals were randomized into groups (n=3 animals/time point) and the radioactive compound was once applied intravenously. The i.v. application volume was 100 μl/mice.
At the predetermined time point, n=3 animals were sacrificed, the organs removed, weight and measured in a Germanium detector to count the Th227 in the sample.

[2] = system: LNCaP human prostate cancer cells; assay: LNCaP xenograft efficacy study (T/C tumor area); type: in vivo, SCID mice; details: Example IV; day 36 after start of therapy; once 1 MBq/kg
Method: as §1, §2
Efficacy study: When tumors reached a predetermined size in mice of 35-50 mm^2 animals were randomized into treatment and control groups (n=10 animals/group) and treatment with the defined radioactive dose was started. The i.v. application volume was 100 μl/mice.
Tumor response was assessed by determination of the tumor area (product of the longest diameter and its perpendicular) using a caliper. The animal body weight was monitored as a measure for treatment-related toxicity. Measurement of tumor area and body weight was performed two to three times weekly.
Animals were sacrificed when showing signs of toxicity (>20% body weight loss) or when tumors reached a size of approximately 200 mm^2.
Tumor growth inhibition is presented as T/C ratio (Treatment/Control) calculated with tumor areas when the vehicle control group had to be closed.

C4-2 cells = assay: Cell proliferation assay (CellTiter-Glo, 5-day exposure), C4-2; type: cell-based; details: C4-2, 1000 cells/well, Th-227 labelled at 375 kBq/nmol, mean of 1 to 6 experiments
How it was run: (§3)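 Prostate cancer cells (VCaP 4000/well; 22Rv1, C4-2, LNCaP 1000/well), Th-227-labelled PSMA ligands, 5-day exposure; viability by CTG at start and end.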

22Rv1 cells = assay: Cell proliferation assay (CellTiter-Glo, 5-day exposure), 22Rv1; type: cell-based; details: 22Rv1, 1000 cells/well, Th-227 labelled at 375 kBq/nmol, mean of 1 to 6 experiments
How it was run: as §3

VCaP cells = assay: Cell proliferation assay (CellTiter-Glo, 5-day exposure), VCaP; type: cell-based; details: 4000 cells/well, Th-227 labelled at 375 kBq/nmol, mean of 1 to 6 experiments
How it was run: as §3

Cc1cc(C(=O)NCCN(CCCN(CCNC(=O)c2cc(C)n(CC(=O)O)c(=O)c2[O-])CCNC(=O)c2cc(C)n(CC(=O)NCC3CCC(C(=O)NC(Cc4cnc5ccccc5c4)C(=O)NCCCCC(NC(=O)NC(CCC(=O)O)C(=O)O)C(=O)O)CC3)c(=O)c2[O-])CCNC(=O)c2cc(C)n(CC(=O)NCC3CCC(C(=O)NC(Cc4cnc5ccccc5c4)C(=O)NCCCCC(NC(=O)NC(CCC(=O)O)C(=O)O)C(=O)O)CC3)c(=O)c2[O-])c([O-])c(=O)n1CC(=O)O.[227Th+4] (stereo not drawn) [Example 22-C dimer-227Th]
Th-227 in Blood ([1]; 0.25 h): 3.35% ID Th-227/g organ | Th-227 in Liver ([1]; 0.25 h): 1.79% ID Th-227/g organ | Th-227 in Spleen ([1]; 0.25 h): 13.87% ID Th-227/g organ | Th-227 in Tumor ([1]; 0.25 h): 4.57% ID Th-227/g organ | Th-227 in bone ([1]; 0.25 h): 2.50% ID Th-227/g organ | Th-227 in brain ([1]; 0.25 h): 0.13% ID Th-227/g organ | Th-227 in kidney ([1]; 0.25 h): 61.44% ID Th-227/g organ | Th-227 in large intestine ([1]; 0.25 h): 0.87% ID Th-227/g organ | Th-227 in lung ([1]; 0.25 h): 3.56% ID Th-227/g organ | Th-227 in muscle ([1]; 0.25 h): 1.27% ID Th-227/g organ | Th-227 in prostate ([1]; 0.25 h): 5.47% ID Th-227/g organ | Th-227 in salivary glands ([1]; 0.25 h): 2.63% ID Th-227/g organ | Th-227 in small intestine ([1]; 0.25 h): 1.64% ID Th-227/g organ | Th-227 in Blood ([1]; 1 hr): 0.53% ID Th-227/g organ | Th-227 in Liver ([1]; 1 hr): 0.41% ID Th-227/g organ | Th-227 in Spleen ([1]; 1 hr): 8.93% ID Th-227/g organ | Th-227 in Tumor ([1]; 1 hr): 4.49% ID Th-227/g organ | Th-227 in bone ([1]; 1 hr): 1.12% ID Th-227/g organ | Th-227 in brain ([1]; 1 hr): 0.01% ID Th-227/g organ | Th-227 in kidney ([1]; 1 hr): 96.67% ID Th-227/g organ | Th-227 in large intestine ([1]; 1 hr): 0.23% ID Th-227/g organ | Th-227 in lung ([1]; 1 hr): 1.30% ID Th-227/g organ | Th-227 in muscle ([1]; 1 hr): 0.28% ID Th-227/g organ | Th-227 in prostate ([1]; 1 hr): 1.66% ID Th-227/g organ | Th-227 in salivary glands ([1]; 1 hr): 0.69% ID Th-227/g organ | Th-227 in small intestine ([1]; 1 hr): 0.38% ID Th-227/g organ | Th-227 in Blood ([1]; 4 hr): 0.10% ID Th-227/g organ | Th-227 in Liver ([1]; 4 hr): 0.60% ID Th-227/g organ | Th-227 in Spleen ([1]; 4 hr): 1.68% ID Th-227/g organ | Th-227 in Tumor ([1]; 4 hr): 2.18% ID Th-227/g organ | Th-227 in bone ([1]; 4 hr): 0.74% ID Th-227/g organ | Th-227 in brain ([1]; 4 hr): 0.00% ID Th-227/g organ | Th-227 in kidney ([1]; 4 hr): 45.26% ID Th-227/g organ | Th-227 in large intestine ([1]; 4 hr): 0.29% ID Th-227/g organ | Th-227 in lung ([1]; 4 hr): 0.38% ID Th-227/g organ | Th-227 in muscle ([1]; 4 hr): 0.05% ID Th-227/g organ | Th-227 in prostate ([1]; 4 hr): 0.20% ID Th-227/g organ | Th-227 in salivary glands ([1]; 4 hr): 0.36% ID Th-227/g organ | Th-227 in small intestine ([1]; 4 hr): 0.21% ID Th-227/g organ | Th-227 in Blood ([1]; 24 h): 0.02% ID Th-227/g organ | Th-227 in Liver ([1]; 24 h): 078% ID Th-227/g organ | Th-227 in Spleen ([1]; 24 h): 1.96% ID Th-227/g organ | Th-227 in Tumor ([1]; 24 h): 2.23% ID Th-227/g organ | Th-227 in bone ([1]; 24 h): 0.46% ID Th-227/g organ | Th-227 in brain ([1]; 24 h): 0.00% ID Th-227/g organ | Th-227 in kidney ([1]; 24 h): 11.35% ID Th-227/g organ | Th-227 in large intestine ([1]; 24 h): 0.21% ID Th-227/g organ | Th-227 in lung ([1]; 24 h): 0.25% ID Th-227/g organ | Th-227 in muscle ([1]; 24 h): 0.00% ID Th-227/g organ | Th-227 in prostate ([1]; 24 h): 0.02% ID Th-227/g organ | Th-227 in salivary glands ([1]; 24 h): 0.18% ID Th-227/g organ | Th-227 in small intestine ([1]; 24 h): 0.10% ID Th-227/g organ | Th-227 in Blood ([1]; 96 h): 0.00% ID Th-227/g organ | Th-227 in Liver ([1]; 96 h): 0.31% ID Th-227/g organ | Th-227 in Spleen ([1]; 96 h): 0.43% ID Th-227/g organ | Th-227 in Tumor ([1]; 96 h): 0.66% ID Th-227/g organ | Th-227 in bone ([1]; 96 h): 0.83% ID Th-227/g organ | Th-227 in brain ([1]; 96 h): 0.00% ID Th-227/g organ | Th-227 in kidney ([1]; 96 h): 2.18% ID Th-227/g organ | Th-227 in large intestine ([1]; 96 h): 0.04% ID Th-227/g organ | Th-227 in lung ([1]; 96 h): 0.16% ID Th-227/g organ | Th-227 in muscle ([1]; 96 h): 0.00% ID Th-227/g organ | Th-227 in prostate ([1]; 96 h): 0.00% ID Th-227/g organ | Th-227 in salivary glands ([1]; 96 h): 0.19% ID Th-227/g organ | Th-227 in small intestine ([1]; 96 h): 0.04% ID Th-227/g organ | T/Carea [2]: 0.67 | Proliferation assay on cancer cell lines by TTCs Default Pivot #3 IC50 [kBq/mL] C4-2 1000cells 375kBq/nmol (mean) (C4-2 cells): 2.56 kBq/mL | Proliferation assay on cancer cell lines by TTCs Default Pivot #3 IC50 [kBq/mL] 22Rv1 1000cells 375kBq/nmol (mean) (22Rv1 cells): 0.89 kBq/mL | Proliferation assay on cancer cell lines by TTCs Default Pivot #3 IC50 [kBq/mL] VCap 4000cells 375kBq/nmol (mean) (VCaP cells): 3.65 kBq/mL
